These are literature values, as cited in patent US8545882B2, “Control release formulation containing a hydrophobic material as the sustained release agent” (Nostrum Pharmaceuticals, Inc., priority 2001, dated 2013).

Like-named read-outs stand apart in the source and are kept apart here.

The conditions of data set [1]: granules 200-315 microns, any of three polymers at 10 or 20% by weight.
The conditions of data set [2]: 40% by weight glycerol palmitostearate, wet granulation, after 20 minutes.
The conditions of data set [3]: water.

Regarding `CC(C)Cc1ccc(C(C)C(=O)O)cc1` (stereo not shown) [ibuprofen], the “time in which the drug was released completely” value in data set [1] was not above 30 min.

As to `O=C([O-])c1ccccc1O.[Na+]` [sodium salicylate], in data set [2], the “drug released in water” value is reported as 50%.

For the compound `Cn1c(=O)c2[nH]cnc2n(C)c1=O` [theophylline], the theophylline released in data set [3] (2% (w/w) wax coating, within one hour) is 85%; in data set [3] (6% wax coating, in 5 minutes), 35%; in data set [3] (6% wax coating, within the first hour) it was 55%; in data set [3] (10% (w/w) wax coating, in 5 minutes), 28%; in data set [3] (10% (w/w) wax coating, within the first hour), 38%.
